Experimental data taken from ChEMBL document CHEMBL2157896, “Engineering pH-gated transitions for selective and efficient double-strand DNA photocleavage in hypoxic tumors” (J Med Chem, 2011).
The source made the active and inactive calls. The rule behind the calls is not given here.

Experiments:
Nucleic Acid [1] = assay: Induction of photochemical DNA cleavage in Escherichia coli pBR322 assessed as form I level at 15 uM in pH 8.0 phosphate buffer measured after 10 mins of UV irradiation; format: nucleic-acid assay
Nucleic Acid [2] = assay: Induction of DNA damage in human […] cells at 30 uM incubated for 3 hrs by single cell gel electrophoresis; format: cell-based
Nucleic Acid [3] = assay: Induction of photochemical DNA cleavage in Escherichia coli pBR322 assessed as form I level at 15 uM in pH 7.0 phosphate buffer measured after 1 min of UV irradiation; format: nucleic-acid assay
Nucleic Acid [4] = assay: Induction of photochemical DNA cleavage in Escherichia coli pBR322 assessed as form 3 level at 15 uM in pH 7.0 phosphate buffer measured after 4 mins of UV irradiation; format: nucleic-acid assay
Nucleic Acid [5] = assay: Induction of photochemical DNA cleavage in Escherichia coli pBR322 assessed as disappearance of supercoiled DNA at 15 uM in pH 8.0 phosphate buffer after 10 mins of UV irradiation; format: nucleic-acid assay
Nucleic Acid [6] = assay: Induction of photochemical DNA cleavage in Escherichia coli pBR322 assessed as form I level at 15 uM in pH 6.0 phosphate buffer measured after 1 min of UV irradiation; format: nucleic-acid assay
Nucleic Acid [7] = assay: Induction of photochemical DNA cleavage in Escherichia coli pBR322 assessed as supercoiled DNA level at 15 uM in pH 6.0 phosphate buffer measured after 2 mins of UV irradiation; format: nucleic-acid assay
Nucleic Acid [8] = assay: Induction of photochemical DNA cleavage in Escherichia coli pBR322 assessed as form I level at 15 uM in pH 7.0 phosphate buffer measured after 10 mins of UV irradiation; format: nucleic-acid assay
Nucleic Acid [9] = assay: Induction of photochemical DNA cleavage in Escherichia coli pBR322 assessed as form 3 level at 15 uM in pH 7.0 phosphate buffer measured after 6 mins of UV irradiation; format: nucleic-acid assay
A-375 [10] = assay: Toxicity in human A375 cells at <10 uM under dark condition incubated for 72 hrs by MTT assay; format: cell-based; conditions: a-375, 72 h
Nucleic Acid [11] = assay: Induction of photochemical DNA cleavage in Escherichia coli pBR322 assessed as form I level at 15 uM in pH 7.0 phosphate buffer measured after 8 mins of UV irradiation; format: nucleic-acid assay
A-375 [12] = assay: Drug uptake in human A375 cells at 30 uM incubated for 30 mins by fluorescence microscopy; format: ADME, cell-based; conditions: a-375, 0.5 h
Nucleic Acid [13] = assay: Induction of photochemical DNA cleavage in Escherichia coli pBR322 assessed as form I level at 15 uM in pH 6.0 phosphate buffer measured after 10 mins of UV irradiation; format: nucleic-acid assay
Nucleic Acid [14] = assay: Induction of photochemical DNA cleavage in Escherichia coli pBR322 assessed as form 2 level at 15 uM in pH 7.0 phosphate buffer measured after 1 min of UV irradiation; format: nucleic-acid assay
Nucleic Acid [15] = assay: Induction of DNA cleavage in Escherichia coli pBR322 assessed as form3/form2 ratio at 15 uM at pH 6 to 9 after 10 mins of UV irradiation; format: nucleic-acid assay
Nucleic Acid [16] = assay: Induction of photochemical DNA cleavage in Escherichia coli pBR322 assessed as form I level at 15 uM in pH 8.0 phosphate buffer measured after 4 mins of UV irradiation; format: nucleic-acid assay
Nucleic Acid [17] = assay: Induction of photochemical DNA cleavage in Escherichia coli pBR322 assessed as form 3 level at 15 uM in pH 6.0 phosphate buffer measured after 4 mins of UV irradiation; format: nucleic-acid assay
Nucleic Acid [18] = assay: Induction of photochemical DNA cleavage in Escherichia coli pBR322 assessed as form 2 level at 15 uM in pH 8.0 phosphate buffer measured after 2 mins of UV irradiation; format: nucleic-acid assay
Nucleic Acid [19] = assay: Induction of photochemical DNA cleavage in Escherichia coli pBR322 assessed as form 2 level at 15 uM in pH 8.0 phosphate buffer measured after 1 min of UV irradiation; format: nucleic-acid assay
Nucleic Acid [20] = assay: Induction of photochemical DNA cleavage in Escherichia coli pBR322 assessed as form 2 level at 15 uM in pH 6.0 phosphate buffer measured after 1 min of UV irradiation; format: nucleic-acid assay
Nucleic Acid [21] = assay: Induction of photochemical DNA cleavage in Escherichia coli pBR322 assessed as form I level at 15 uM in pH 6.0 phosphate buffer measured after 2 mins of UV irradiation; format: nucleic-acid assay
Nucleic Acid [22] = assay: Induction of photochemical DNA cleavage in Escherichia coli pBR322 assessed as form I level at 15 uM in pH 6.0 phosphate buffer measured after 6 mins of UV irradiation; format: nucleic-acid assay
Nucleic Acid [23] = assay: Induction of photochemical DNA cleavage in Escherichia coli pBR322 assessed as form 2 level at 15 uM in pH 6.0 phosphate buffer measured after 2 mins of UV irradiation; format: nucleic-acid assay
Nucleic Acid [24] = assay: Induction of photochemical DNA cleavage in Escherichia coli pBR322 assessed as form I level at 15 uM in pH 8.0 phosphate buffer measured after 6 mins of UV irradiation; format: nucleic-acid assay
Nucleic Acid [25] = assay: Induction of photochemical DNA cleavage in Escherichia coli pBR322 assessed as form 3 level at 15 uM in pH 6.0 phosphate buffer measured after 0.5 mins of UV irradiation; format: nucleic-acid assay
Nucleic Acid [26] = assay: Induction of photochemical DNA cleavage in Escherichia coli pBR322 assessed as form 2 level at 15 uM in pH 6.0 phosphate buffer measured after 8 mins of UV irradiation; format: nucleic-acid assay
Nucleic Acid [27] = assay: Induction of photochemical DNA cleavage in Escherichia coli pBR322 assessed as form 2 level at 15 uM in pH 8.0 phosphate buffer measured after 8 mins of UV irradiation; format: nucleic-acid assay
Nucleic Acid [28] = assay: Induction of photochemical DNA cleavage in Escherichia coli pBR322 assessed as form 3 level at 15 uM in pH 7.0 phosphate buffer measured after 8 mins of UV irradiation; format: nucleic-acid assay
Nucleic Acid [29] = assay: Induction of photochemical DNA cleavage in Escherichia coli pBR322 assessed as form 3 level at 15 uM in pH 6.0 phosphate buffer measured after 2 mins of UV irradiation; format: nucleic-acid assay
Nucleic Acid [30] = assay: Induction of DNA cleavage in Escherichia coli pBR322 at 5 uM in pH 6.0 phosphate buffer measured after of UV irradiation; format: nucleic-acid assay
Nucleic Acid [31] = assay: Induction of photochemical DNA cleavage in Escherichia coli pBR322 assessed as form I level at 15 uM in pH 6.0 phosphate buffer measured after 8 mins of UV irradiation; format: nucleic-acid assay
A-375 [32] = assay: Drug uptake in human A375 cells at 30 uM incubated for 30 mins by differential interference contrast microscopy; format: ADME, cell-based; conditions: a-375, 0.5 h
Nucleic Acid [33] = assay: Induction of photochemical DNA cleavage in Escherichia coli pBR322 assessed as form 3 level at 15 uM in pH 7.0 phosphate buffer measured after 1 min of UV irradiation; format: nucleic-acid assay
Nucleic Acid [34] = assay: Induction of photochemical DNA cleavage in Escherichia coli pBR322 assessed as form 3 level at 15 uM in pH 8.0 phosphate buffer measured after 1 min of UV irradiation; format: nucleic-acid assay
Nucleic Acid [35] = assay: Induction of photochemical DNA cleavage in Escherichia coli pBR322 assessed as form 2 level at 15 uM in pH 7.0 phosphate buffer measured after 6 mins of UV irradiation; format: nucleic-acid assay
Nucleic Acid [36] = assay: Induction of photochemical DNA cleavage in Escherichia coli pBR322 assessed as form 3 level at 15 uM in pH 8.0 phosphate buffer measured after 6 mins of UV irradiation; format: nucleic-acid assay

Activity (Nucleic Acid [1]): 26.3%
Activity (Nucleic Acid [3]): 52.7%
Activity (Nucleic Acid [4]): 25%
Activity (Nucleic Acid [5]): Active
Activity (Nucleic Acid [6]): 30.2%
Activity (Nucleic Acid [7]): < 17%
Activity (Nucleic Acid [8]): 11.7%
Activity (Nucleic Acid [9]): 28.1%
Activity (Nucleic Acid [11]): 20.9%
Drug uptake (A-375 [12]): Active
Activity (Nucleic Acid [13]): 0%
Activity (Nucleic Acid [14]): 47.3%
Ratio (Nucleic Acid [15]): 2
Activity (Nucleic Acid [16]): 58.6%
Activity (Nucleic Acid [17]): 34.9%
Activity (Nucleic Acid [18]): 22.2%
Activity (Nucleic Acid [19]): 16.1%
Activity (Nucleic Acid [20]): 52.7%
Activity (Nucleic Acid [21]): 17.3%
Activity (Nucleic Acid [22]): 0%
Activity (Nucleic Acid [23]): 54.2%
Activity (Nucleic Acid [24]): 40.8%
Activity (Nucleic Acid [25]): 13.5%
Activity (Nucleic Acid [26]): 35%
Activity (Nucleic Acid [27]): 45.6%
Activity (Nucleic Acid [28]): 28.1%
Activity (Nucleic Acid [29]): 28.4%
Activity (Nucleic Acid [30]): 50%
Activity (Nucleic Acid [31]): 0%
Drug uptake (A-375 [32]): Active
Activity (Nucleic Acid [33]): 0%
Activity (Nucleic Acid [34]): 0%
Activity (Nucleic Acid [35]): 47.2%
Activity (Nucleic Acid [36]): 0%
SMILES: NCCCC[C@H](N)C(=O)NCCCC[C@H](N)C(=O)Nc1ccc(C#Cc2c(F)c(F)nc(F)c2F)cc1.O=C(O)C(F)(F)F
Activity (Nucleic Acid [2]): Active
Activity (A-375 [10]): Non-toxic
